# Source: patent publication US20250215029A1 (Recludix Pharma, Inc., priority 2022, published 2025)
# Read-outs that look alike come from different tables or passages of the source.
# Key:
# [1] = target: T1, Recombinant STAT6 protein (STAT6 (W123-T658)) (Homo sapiens, UniProt P42226); assay: STAT6 Fluorescence Polarization (FP) Assay; format: binding; conditions: 45-minute incubation
# T1 construct: Recombinant STAT6 protein (STAT6 (W123-T658))
# T1 sequence (P42226 123-658): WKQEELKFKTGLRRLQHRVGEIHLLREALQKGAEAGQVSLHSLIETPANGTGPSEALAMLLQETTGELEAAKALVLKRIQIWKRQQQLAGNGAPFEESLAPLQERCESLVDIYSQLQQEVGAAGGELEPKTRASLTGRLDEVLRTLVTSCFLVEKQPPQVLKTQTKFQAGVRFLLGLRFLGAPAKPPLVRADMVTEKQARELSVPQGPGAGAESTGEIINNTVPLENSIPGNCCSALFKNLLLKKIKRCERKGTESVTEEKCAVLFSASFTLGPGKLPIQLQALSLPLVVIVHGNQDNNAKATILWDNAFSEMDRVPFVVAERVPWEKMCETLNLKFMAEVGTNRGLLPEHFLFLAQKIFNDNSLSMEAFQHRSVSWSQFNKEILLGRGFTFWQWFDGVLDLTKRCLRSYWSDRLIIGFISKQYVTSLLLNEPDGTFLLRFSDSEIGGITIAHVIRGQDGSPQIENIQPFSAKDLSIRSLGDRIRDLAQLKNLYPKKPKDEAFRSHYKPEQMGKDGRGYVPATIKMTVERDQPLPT
# How it was run: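 Protein-probe mix (250 nM STAT6 W123-T658, 2 nM 5-FAM-pTyr peptide) in 10 mM HEPES pH 7.4, 50 mM NaCl, 1 mM EDTA, 0.05% Tween 20, 2 mM DTT; added to compound dilution series, 1% DMSO final; 45 min RT; FP read; IC50 via nonlinear regression.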
# [2] = target: T2, Recombinant STAT3 protein (STAT3 (G127-I722)) (Homo sapiens, UniProt P40763); assay: STAT3 Fluorescence Polarization (FP) Assay; format: binding; conditions: probe 5-FAM-GpYLPQTV-NH2 2 nM, 45-minute incubation
# T2 construct: Recombinant STAT3 protein (STAT3 (G127-I722))
# How it was run: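 Compounds in serial dilution receive a premix of STAT3 (G127-I722, 25 nM) and fluorescent phosphotyrosine peptide 5-FAM-GpYLPQTV-NH2 (2 nM) at pH 7.4. After 45 min at room temperature, FP is measured and IC50 derived by nonlinear regression.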
# [3] = STAT6 250 nM, probe 5-FAM-Ap[…]-NH2 2 nM, read-out: STAT6 (FP assay IC50)
# [4] = STAT3 25 nM, read-out: STAT3 (FP assay IC50)
# [5] = STAT6 (W123-T658) 250 nM, probe 5-FAM-Ap[…]-NH2 2 nM, read-out: STAT6 (FP assay IC50 class)
# [6] = STAT3 (G127-I722) 25 nM, read-out: STAT3 (FP assay IC50 class)
# T2 sequence (P40763 127-722): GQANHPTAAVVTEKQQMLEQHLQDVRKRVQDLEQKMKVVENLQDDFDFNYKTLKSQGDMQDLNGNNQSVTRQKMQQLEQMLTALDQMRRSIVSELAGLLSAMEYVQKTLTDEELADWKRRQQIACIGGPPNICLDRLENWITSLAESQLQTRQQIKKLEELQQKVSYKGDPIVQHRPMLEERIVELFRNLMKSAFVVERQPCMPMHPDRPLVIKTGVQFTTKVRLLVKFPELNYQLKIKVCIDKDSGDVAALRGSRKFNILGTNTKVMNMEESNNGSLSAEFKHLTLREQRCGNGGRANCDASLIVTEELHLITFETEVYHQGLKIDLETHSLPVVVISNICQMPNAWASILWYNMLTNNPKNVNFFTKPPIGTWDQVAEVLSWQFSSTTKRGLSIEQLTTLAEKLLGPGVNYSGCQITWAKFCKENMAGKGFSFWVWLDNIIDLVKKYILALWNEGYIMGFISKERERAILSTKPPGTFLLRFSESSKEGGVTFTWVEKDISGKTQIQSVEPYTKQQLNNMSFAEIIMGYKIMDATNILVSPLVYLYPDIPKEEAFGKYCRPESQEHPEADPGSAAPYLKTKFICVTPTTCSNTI
"IC50 [1, 5]","IC50 [2, 6]",SMILES,further results
,,"O=C(N[C@H]1C[C@@H](O)CC[C@H]2CC[C@@H](C(=O)N3CC(C(=O)N4CCOCC4)C3)N2C1=O)c1cc2cc(C(F)(F)P(=O)(O)O)ccc2s1 [Compound 4, (difluoro(2-(((3S,6S,8S,10aR)-8-hydroxy-3-(3-(morpholine-4-carbonyl)azetidine-1-carbonyl)-5-oxodecahydropyrrolo [1,2-a]azocin-6-yl)carbamoyl)benzo[b]thiophen-5-yl)methyl) phosphonic acid]","IC50 [1, 3]: 3 to 30 µM; IC50 [2, 4]: 0.1 to 1 µM"
3 to 30 µM,0.1 to 1 µM,"O=C(N[C@H]1CCC[C@H]2CC[C@@H](C(=O)N3CC(n4cnccc4=O)C3)N2C1=O)c1cc2cc(C(F)P(=O)(O)O)ccc2s1 (stereo partly drawn) [Compound 609, (fluoro(2-(((3S,6S,9aS)-5-oxo-3-(3-(6-oxopyrimidin-1(6H)-yl)azetidine-1-carbonyl)octahydro-1H-pyrrolo[1,2-a]azepin-6-yl)carbamoyl)benzo [b]thiophen-5-yl)methyl) phosphonic acid]",
3 to 30 µM,< 0.1 µM,"COc1ccncc1C1CN(C(=O)[C@@H]2CC[C@@H]3C[C@H](C(C)C)CC[C@H](NC(=O)c4cc5cc(C(F)P(=O)(O)O)ccc5s4)C(=O)N32)C1 (stereo partly drawn) [Compound 211, (fluoro(2-(((3S,6S,9R,10aR)-9-isopropyl-3-(3-(4-methoxypyridin-3-yl)azetidine-1-carbonyl)-5-oxodecahydropyrrolo[1,2-a]azocin-6-yl)carbamoyl)benzo[b]thiophen-5-yl)methyl)phosphonic acid]",
3 to 30 µM,0.1 to 1 µM,"O=C(N[C@H]1CCCC[C@H]2CC[C@@H](C(=O)N[C@H](CO)Cc3cccnc3)N2C1=O)c1cc2cc(C(F)(F)P(=O)(O)O)ccc2s1 [Compound 725, (difluoro(2-(((3S,6S,10aS)-3-(((S)-1-hydroxy-3-(pyridin-3-yl)propan-2-yl)carbamoyl)-5-oxodecahydropyrrolo [1,2-a]azocin-6-yl)carbamoyl)benzo [b]thiophen-5-yl)methyl) phosphonic acid]",
≤ 0.3 µM,1 to 10 µM,"N#C[C@@H]1[C@@H](c2ccccc2)CN(C(=O)[C@@H]2CC[C@@H]3CCCC[C@H](NC(=O)c4cc5cc([C@@H](F)P(=O)(O)O)ccc5s4)C(=O)N32)C12CC2 (single isomer, unassigned) [Compound 923]",
0.3 to 3 µM,1 to 10 µM,"N#C[C@@H]1CN(C(=O)[C@@H]2C[C@@H](O)[C@@H]3CCCCC[C@H](NC(=O)c4cc5cc(C(F)P(=O)(O)O)ccc5s4)C(=O)N23)C[C@H]1c1ccccc1 (relative stereo) [Compound 553, ((2-(((1R,3S,6S,11aS)-3-((rel-trans)-3-cyano-4-phenylpyrrolidine-1-carbonyl)-1-hydroxy-5-oxodecahydro-1H-pyrrolo[1,2-a]azonin-6-yl)carbamoyl)benzo[b]thiophen-5-yl)fluoromethyl)phosphonic acid]",
,,"N#C[C@@H]1CN(C(=O)[C@@H]2CC[C@@H]3CCCC[C@H](NC(=O)c4ccc5ccc(C(F)(F)P(=O)(O)O)cc5c4)C(=O)N32)C[C@H]1c1cc[nH]c(=O)c1 (single isomer, unassigned) [Compound 79, ((7-(((3S,6S,10aS)-3-((3S,4R or 3R,4S)-3-cyano-4-(2-oxo-1,2-dihydropyridin-4-yl)pyrrolidine-1-carbonyl)-5-oxodecahydropyrrolo [1,2-a]azocin-6-yl)carbamoyl)naphthalen-2-yl)difluoromethyl) phosphonic acid]","IC50 ([1]; STAT6 250 nM, probe 5-FAM-ApYKPFQDLI-NH2 2 nM, read-out: STAT6 (FP assay IC50)): ≤ 0.3 µM; IC50 [2, 4]: 0.1 to 1 µM"
,,"CCO[C@H]1CC[C@H]2CC[C@@H](C(=O)N3CC(C(=O)N4CCOCC4)C3)N2C(=O)[C@@H](NC(=O)c2cc3cc(C(F)(F)P(=O)(O)O)ccc3s2)C1 [Compound 10, ((2-(((3S,6S,8S,10aR)-8-ethoxy-3-(3-(morpholine-4-carbonyl)azetidine-1-carbonyl)-5-oxodecahydropyrrolo [1,2-a]azocin-6-yl)carbamoyl)benzo[b]thiophen-5-yl)difluoromethyl) phosphonic acid]","IC50 [1, 3]: 3 to 30 µM; IC50 [2, 4]: 0.1 to 1 µM"
3 to 30 µM,0.1 to 1 µM,"Cc1ccc(C#N)nc1C1CN(C(=O)[C@@H]2CC[C@@H]3CCC[C@H](NC(=O)c4cc5cc(C(F)(F)P(=O)(O)O)ccc5s4)C(=O)N32)C1 [Compound 820, ((2-(((3S,6S,9aS)-3-(3-(6-cyano-3-methylpyridin-2-yl)azetidine-1-carbonyl)-5-oxooctahydro-1H-pyrrolo[1,2-a]azepin-6-yl)carbamoyl)benzo [b]thiophen-5-yl)difluoromethyl) phosphonic acid]",
3 to 30 µM,1 to 10 µM,"O=C(N[C@H]1CCC[C@H]2CC[C@@H](C(=O)N3CC(c4cnccc4-n4ccnc4)C3)N2C1=O)c1cc2cc([C@@H](F)P(=O)(O)O)ccc2s1 [Compound 853, ((S)-(2-(((3S,6S,9aS)-3-(3-(4-(1H-imidazol-1-yl)pyridin-3-yl)azetidine-1-carbonyl)-5-oxooctahydro-1H-pyrrolo[1,2-a]azepin-6-yl)carbamoyl)benzo [b]thiophen-5-yl)fluoromethyl) phosphonic acid]",
3 to 30 µM,1 to 10 µM,"Cc1cc(=O)[nH]cc1C1CN(C(=O)[C@@H]2CC[C@@H]3CCC[C@H](NC(=O)c4cc5cc(CP(=O)(O)O)ccc5s4)C(=O)N32)C1 [Compound 646, ((2-(((3S,6S,9aS)-3-(3-(4-methyl-6-oxo-1,6-dihydropyridin-3-yl)azetidine-1-carbonyl)-5-oxooctahydro-1H-pyrrolo[1,2-a]azepin-6-yl)carbamoyl)benzo [b]thiophen-5-yl)methyl) phosphonic acid]",
3 to 30 µM,1 to 10 µM,"O=C(N[C@H]1CCCC[C@H]2CC[C@@H](C(=O)N3CCC(c4cc[nH]n4)CC3)N2C1=O)c1cc2cc(C(F)P(=O)(O)O)ccc2s1 (stereo partly drawn) [Compound 589, ((2-(((3S,6S,10aS)-3-(4-(1H-pyrazol-3-yl)piperidine-1-carbonyl)-5-oxodecahydropyrrolo[1,2-a]azocin-6-yl)carbamoyl)benzo[b]thiophen-5-yl)fluoromethyl)phosphonic acid]",
3 to 30 µM,0.1 to 1 µM,"COC1(c2nccn2C)CN(C(=O)[C@@H]2CC[C@@H]3CCC4(CC4)C[C@H](NC(=O)c4cc5cc(C(F)(F)P(=O)(O)O)ccc5s4)C(=O)N32)C1 [Compound 768, (difluoro(2-(((3′S,6′S,10a′S)-3′-(3-methoxy-3-(1-methyl-1H-imidazol-2-yl)azetidine-1-carbonyl)-5′-oxooctahydro-5′H-spiro[cyclopropane-1,8′-pyrrolo[1,2-a]azocin]-6′-yl)carbamoyl)benzo [b]thiophen-5-yl)methyl) phosphonic acid]",
3 to 30 µM,< 0.1 µM,"CCOc1ccncc1C1CN(C(=O)[C@@H]2CC[C@@H]3CCC[C@H](NC(=O)c4cc5cc(C(F)P(=O)(O)O)ccc5s4)C(=O)N32)C1 (stereo partly drawn) [Compound 597, ((2-(((3S,6S,9aS)-3-(3-(4-ethoxypyridin-3-yl)azetidine-1-carbonyl)-5-oxooctahydro-1H-pyrrolo[1,2-a]azepin-6-yl)carbamoyl)benzo [b]thiophen-5-yl)fluoromethyl) phosphonic acid]",

SMILES,"IC50 [1, 5]","IC50 [2, 6]",further results
"O=C(N[C@H]1CCC[C@H]2CC[C@@H](C(=O)N3CC(c4cccnc4)C3)N2C1=O)c1cc2cc([C@@H](F)P(=O)(O)O)ccc2s1 [Compound 873, ((S)-fluoro(2-(((3S,6S,9aS)-5-oxo-3-(3-(802yridine-3-yl)azetidine-1-carbonyl)octahydro-1H-pyrrolo[1,2-a]azepin-6-yl)carbamoyl)benzo [b]thiophen-5-yl)methyl) phosphonic acid]",,< 0.1 µM,"IC50 ([1]; STAT6 (W123-T658) 250 nM, probe 5-FAM-ApYKPFQDLI-NH2 2 nM, read-out: STAT6 (FP assay IC50 class)): 3 to 30 µM"
